Some test systems named below: SN12C renal; HL-60(TB) leukemia; SF-295 CNS; RXF 393 renal; U251 CNS; OVCAR-8 ovarian; UACC-257 melanoma; HOP-62 NSCLC; HOP-92 NSCLC.
Experiment in all cases: DTP human tumour cell line panel, 48 h

In PubChem BioAssay (NCI) one finds TGI and GI50 data, which are given here for ten molecules.

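All cell lines were grown in 96-well plates and treated with compound for 48 hours. GI50 = concentration required for 50% inhibition of growth. TGI is the concentration that stops growth completely.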 Some results are limits rather than exact numbers.

The term TGI denotes the concentration at which net growth stops. High values mean lower sensitivity of the cells, low ones greater sensitivity of the cells. In the case of `C[S+](C)CCOC(=O)C(=[N+]=[N-])c1ccc([N+](=O)[O-])cc1`, the total growth inhibition concentration (TGI) in the assay with SN12C renal, with HL-60(TB) leukemia, in the assay with SF-295 CNS, with RXF 393 renal, in the assay with U251 CNS and in the assay with OVCAR-8 ovarian was greater than 100 µM in each case. Besides, the TGI with UACC-257 melanoma and with HOP-62 NSCLC was greater than 100 µM throughout.

As to `N#Cc1c(NN)nc(NN)c(C#N)c1-c1ccccc1`, the TGI in the assay with SN12C renal, with HL-60(TB) leukemia, in the assay on SF-295 CNS, in the assay on RXF 393 renal, in the assay on OVCAR-8 ovarian and with UACC-257 melanoma was greater than 100 µM each time. Also, the TGI with HOP-62 NSCLC and in the assay on HOP-92 NSCLC was greater than 100 µM throughout.

One may read the GI50 as the concentration giving 50% growth inhibition. In the case of `O=C(CNc1ccc2c(c1)C(=O)c1ccccc1C2=O)Nc1ccc2c(c1)C(=O)c1ccccc1C2=O`, the GI50 is 0.293 µM in the assay with SN12C renal; 1.57 µM in the assay on HL-60(TB) leukemia; 1.46 µM in the assay on SF-295 CNS; 0.687 µM with RXF 393 renal; 0.449 µM with U251 CNS; 0.423 µM in the assay on OVCAR-8 ovarian. In addition, the GI50 in the assay on UACC-257 melanoma was 1.49 µM; with HOP-62 NSCLC, 1.85 µM; with HOP-92 NSCLC, 1.39 µM. In addition, the concentration for total growth inhibition (TGI) in the assay with SN12C renal was 1 µM; in the assay on HL-60(TB) leukemia it was 4.35 µM; with SF-295 CNS, 2.89 µM; in the assay on RXF 393 renal, 2.04 µM; in the assay with U251 CNS, 1.57 µM; in the assay with OVCAR-8 ovarian, 2.03 µM. For the same molecule, the TGI in the assay with UACC-257 melanoma amounted to 2.99 µM; in the assay on HOP-62 NSCLC it was 3.59 µM; in the assay on HOP-92 NSCLC, 2.98 µM.

Consider `O=c1nc2n(-c3ccc(Cl)cc3)c3ccc([N+](=O)[O-])cc3cc-2c(=O)[nH]1`, for which the GI50 in the assay on SN12C renal is 14.5 µM; in the assay with HL-60(TB) leukemia it was 9.55 µM; with SF-295 CNS, 19.8 µM; in the assay on RXF 393 renal, 18.8 µM; in the assay on U251 CNS, 8.15 µM; in the assay with OVCAR-8 ovarian, 33.2 µM. The values for the GI50 in the assay on UACC-257 melanoma and with HOP-62 NSCLC were 23.4 µM and 6.01 µM, respectively. The TGI with SN12C renal was 44.5 µM; in the assay with HL-60(TB) leukemia, greater than 100 µM; with SF-295 CNS, 47.1 µM; in the assay on RXF 393 renal, greater than 100 µM; in the assay on U251 CNS it was 88.7 µM; in the assay on OVCAR-8 ovarian it was greater than 100 µM. Also, the TGI with UACC-257 melanoma came to 62.5 µM; in the assay with HOP-62 NSCLC it was 22.8 µM.

`Clc1ccc2c(c1)C1C(CO2)C(c2ccccc2)=NN1c1ccccc1` (stereo not drawn): the TGI in the assay on HL-60(TB) leukemia was 53.1 µM; with SF-295 CNS, greater than 100 µM; in the assay on RXF 393 renal, greater than 100 µM; in the assay with U251 CNS, greater than 100 µM; in the assay on OVCAR-8 ovarian it was greater than 100 µM; with UACC-257 melanoma it was greater than 100 µM. Also, the TGI in the assay on HOP-62 NSCLC was greater than 100 µM; with HOP-92 NSCLC it was 58.9 µM.

As for `NC(N)=N/N=C\c1cccc(OCc2ccccc2)c1`, the GI50 with SN12C renal was 4.33 µM; in the assay with HL-60(TB) leukemia, 2.66 µM; in the assay on SF-295 CNS it was 4.64 µM; in the assay on RXF 393 renal, 2.54 µM; with U251 CNS it was 1.87 µM; in the assay with OVCAR-8 ovarian it was 6.58 µM. The GI50 was 1.82 µM with UACC-257 melanoma, 5.16 µM with HOP-62 NSCLC and 2.05 µM with HOP-92 NSCLC. Moreover, the TGI in the assay on SN12C renal was 17.6 µM; in the assay with HL-60(TB) leukemia it was 6.35 µM; with SF-295 CNS it was 20.4 µM; in the assay with RXF 393 renal it was 6.64 µM; in the assay with U251 CNS, 4.12 µM; in the assay with OVCAR-8 ovarian, 38.8 µM. In addition, the concentration for total growth inhibition (TGI) in the assay with UACC-257 melanoma came to 4.07 µM; with HOP-62 NSCLC, 19.1 µM; with HOP-92 NSCLC it was 7.47 µM.

Regarding `CC(=O)[CH-]C(=O)c1ccccc1.CC(=O)[CH-]C(=O)c1ccccc1.[Eu+3].[OH-].[OH3+]`, the GI50 in the assay on SN12C renal, in the assay with HL-60(TB) leukemia, with SF-295 CNS, with RXF 393 renal, in the assay on U251 CNS and with OVCAR-8 ovarian was greater than 100 µM in each case. For the same molecule, the GI50 with UACC-257 melanoma was greater than 100 µM; in the assay on HOP-62 NSCLC, greater than 100 µM; in the assay on HOP-92 NSCLC, 7.44 µM. Besides, the TGI in the assay with SN12C renal, in the assay with HL-60(TB) leukemia, in the assay with SF-295 CNS, in the assay on RXF 393 renal, in the assay with U251 CNS and in the assay with OVCAR-8 ovarian was greater than 100 µM throughout. For the same molecule, the TGI in the assay with UACC-257 melanoma is greater than 100 µM; with HOP-62 NSCLC, greater than 100 µM; in the assay on HOP-92 NSCLC it was 99.7 µM.

With `CC(=O)[CH-]C(=O)c1ccccc1.CC(=O)[CH-]C(=O)c1ccccc1.CC1(C)C2CCC1(C)C([O-])C2.CC1(C)C2CCC1(C)C([O-])C2.[Ti+4]`, the GI50 in the assay with SN12C renal is 27.9 µM; in the assay on HL-60(TB) leukemia, 23.8 µM; with SF-295 CNS, 38.9 µM; in the assay on RXF 393 renal, 17.6 µM; with U251 CNS, 40.4 µM; with OVCAR-8 ovarian, 44.9 µM. Further, the GI50 is 88.7 µM in the assay with UACC-257 melanoma, 25.7 µM in the assay on HOP-62 NSCLC and 12.9 µM in the assay with HOP-92 NSCLC. Besides, the TGI is greater than 100 µM with SN12C renal; greater than 100 µM in the assay on HL-60(TB) leukemia; greater than 100 µM with SF-295 CNS; 36.1 µM in the assay with RXF 393 renal; greater than 100 µM in the assay on U251 CNS; greater than 100 µM with OVCAR-8 ovarian. For the same molecule, the TGI in the assay on UACC-257 melanoma was greater than 100 µM; in the assay on HOP-62 NSCLC, 81.8 µM; in the assay with HOP-92 NSCLC it was 34.9 µM.

On to `O=C1NC(=O)C2C(=O)NC(=O)C1C2(c1ccccc1)c1cc[nH]c1` (stereo not drawn), for which the TGI with SN12C renal, with HL-60(TB) leukemia, with SF-295 CNS, in the assay on RXF 393 renal, in the assay on OVCAR-8 ovarian and in the assay with UACC-257 melanoma was greater than 100 µM throughout. The TGI in the assay on HOP-62 NSCLC and in the assay on HOP-92 NSCLC was greater than 100 µM each time.

In the case of `N[C@@H]1CCCC[C@H]1N.O=C([O-])C(=O)[O-].[Pt+4]`, the GI50 in the assay on SN12C renal was 2.56 µM; with HL-60(TB) leukemia, 2.83 µM; with SF-295 CNS it was 4.71 µM; with RXF 393 renal, 8.13 µM; with U251 CNS, 1.83 µM; in the assay with OVCAR-8 ovarian, 6 µM. Moreover, the GI50 in the assay with UACC-257 melanoma is 10.7 µM; in the assay with HOP-62 NSCLC it was 46.2 µM; in the assay on HOP-92 NSCLC, 25.5 µM. Besides, the TGI in the assay with SN12C renal is greater than 100 µM; in the assay on HL-60(TB) leukemia, greater than 100 µM; in the assay on SF-295 CNS it was greater than 100 µM; in the assay on RXF 393 renal, greater than 39.8 µM; with U251 CNS, 27.1 µM; in the assay on OVCAR-8 ovarian, greater than 100 µM. In addition, the values for the TGI with UACC-257 melanoma, in the assay on HOP-62 NSCLC and in the assay with HOP-92 NSCLC were greater than 81.1 µM, greater than 100 µM and greater than 74 µM, respectively.
